From PMC8277899, “A novel RyR1-selective inhibitor prevents and rescues sudden death in mouse models of malignant hyperthermia and heat stroke” (Nature Communications, 2021)
Values after ≈ are worked out from the molar mass of the structure shown. Structures can show the parent of a compound that is named as a salt. Each block holds one molecule with its values, some of them ahead of it.

Key:
[1] = Thermodynamic solubility in solutions for injection; settings: 25 °C; for solubility at 48 h: thermodynamic from solid
[2] = cited from earlier work
RyR1 channel = system: RyR1 channel; parameters: method as in PMID 31299492; settings: HEK293 cell-based assay; read-out: IC50 for inhibiting the RyR1 channel; cited from earlier work

SMILES: CCCCCCCCn1cc(C(=O)O)c(=O)c2cc3c(cc21)OCO3 [Cpd1 sodium salt]
- solubility at 48 h ([1]; 5% glucose aqueous solution, saline or isotonic): 351 ± 14 µg/mL
- Solubility ([1]; Normal saline (0.9% NaCl), 48 h): 849 ± 58 (4) µg/mL
- solubility at 48 h ([1]; pure water, water): 1360 ± 220 µg/mL

- solubility at 48 h ([1]; normal saline (0.9% NaCl), saline or isotonic): 25.7 ± 2.1 µg/mL (≈ 81.8 µM)
SMILES: O=C1CN(/N=C/c2ccc(-c3ccc([N+](=O)[O-])cc3)o2)C(O)=N1 [dantrolene]
- plasma half-life (t1/2) [2]: 12 h
- plasma half-life ([2]; in humans after intravenous injection): 10 to 12 h

SMILES: CCn1cc(C(=O)O)c(=O)c2cc3c(cc21)OCO3 [oxolinic acid, reference compound]
- IC50 (RyR1 channel): 0.81 µM
